Test results from article PMC8252455, “Prediction of a clinically effective dose of THY1773, a novel V 1B receptor antagonist, based on preclinical data” (Biopharmaceutics & Drug Disposition, 2021).
pEC50: −log10 of the molar value. Marks after values point to notes of the source that are not given here.

Columns and labels:
[1] = Blood-to-plasma ratio in dog whole blood; type: in vitro ADME; details: 1 μmol/L
Description: The blood‐to‐plasma ratios of THY1773 were analyzed using pooled fresh whole blood (anticoagulant: EDTA‐2K) and control plasma separated from fresh whole blood in parallel from rats, dogs, and humans. Whole blood and control plasma containing 1 μmol/L THY1773 were incubated at 37°C for 30 min in a shaking water bath. The incubated whole blood was centrifuged at 2000 × g for 10 min at 4°C to obtain plasma. An aliquot of each plasma sample (i.e., isolated plasma from incubated whole blood and control plasma) was mixed with 8 volumes of acetonitrile/methanol (9:1, vol/vol) containing the IS. After centrifugation at 3974 × g for 10 min at 4°C, the supernatant was subjected to liquid chromatography/tandem mass spectrometry (LC‐MS/MS) analysis. The blood‐to‐plasma ratio was calculated by dividing the […].

[2] = system: CYP3A; experiment: Reaction phenotyping in HLMs with ketoconazole; type: in vitro ADME, human
Description: Reaction phenotyping using cDNA expressed recombinant human CYP isoforms, CYP1A2, CYP2B6, CYP2C8, CYP2C9, CYP2C19, CYP2D6, and CYP3A4, was conducted. Each recombinant enzyme (100 pmol/ml) in potassium phosphate buffer (pH 7.4; 100 mmol/L for CYP3A4, 50 mmol/L for the others) was preincubated with [^3H]THY1773 (10 μmol/L) at 37°C for 5 min. The reactions were initiated by the addition of NADPH‐generating system (1 mmol/L NADP^+, 5 mmol/L G‐6‐P, 1 unit/ml G‐6‐PDH, and 5 mmol/L MgCl2) and incubated for 0 or 60 min. The reactions were terminated by the addition of an equal volume of acetonitrile/methanol (9:1, vol/vol), followed by centrifugation at 1650 × g for 10 min at 4°C. An aliquot of the supernatant was subjected to an Agilent 1200 HPLC system (Agilent Technologies, Inc.) equipped with a radiochemical flow detector (Radiomatic 625TR; Perkin Elmer, Inc.), and formation of metabolites was evaluated. […] The CLint was calculated by the method as described previously under metabolic stability in animal liver microsomes, and the fraction metabolized (fm) was calculated by Equation (1): (1) fm=1−(CLint, with inh/CLint) where CLint is intrinsic clearance without specific inhibitor and CLint,with inh is intrinsic clearance in the presence of specific inhibitor.

[3] = Distribution into brain and pituitary gland in rats; type: in vivo, rat; details: 1 h after oral 1 mg/kg
Description: The PK and urinary excretion of THY1773 in rats (1 mg/kg) and dogs (0.5 mg/kg) under fasted conditions were evaluated following intravenous or oral administration of THY1773. THY1773 was dissolved in 10% (vol/vol) hydroxypropyl‐β‐cyclodextrin at pH 4 for intravenous administration, or suspended in 0.5% (wt/vol) methyl cellulose 400 for oral administration. After a single intravenous or oral administration of THY1773, blood samples were collected into tubes containing EDTA‐2K as an anticoagulant. The scheduled time points were predose (dog only), 5 (intravenous only), 15, 30 min, 1, 2, 4, 8, 12, and 24 h postdose. Plasma was separated by centrifugation. Urine samples were collected into bottles set on ice for 24 h after intravenous administration of THY1773. Plasma and urine samples were treated with 4 volumes of acetonitrile/methanol (9:1, vol/vol) containing the IS. After centrifugation (3639 × g, 4°C, 10 min) to remove precipitated proteins, the supernatant was subjected to LC‐MS/MS analysis. The distributions of THY1773 into brain and pituitary gland in rats were investigated after a single oral administration of THY1773 (1 mg/kg). Blood was collected from the tail vein into tubes containing EDTA‐2K at 1 h after a single oral administration of THY1773, and the plasma was separated by centrifugation (12000 × g, 4°C, 3 min). […]

[4] = target: anterior pituitary V1B receptor; experiment: Rat V1B RO study using a tritium labeled V1B receptor ligand; details: in vivo; estimated from RO study of Kamiya et al., 2020

CC(C)NC(=O)Cn1c(-c2cccc(Cl)c2)nn(-c2ccc(CCN3CCOCC3)cc2)c1=O [THY1773]
Blood-to-plasma ratio [1]: 0.846 | fm (fraction metabolized) ([2]; by CYP3A, ketoconazole 1 μmol/L): 0.914 | CLint ([2]; with ketoconazole 1 μmol/L, mean of duplicate): 0.961 ^a μl/min/mg | Concentration ratio of brain to plasma [3]: 0.2 | Concentration ratio of pituitary gland to plasma [3]: 4.7 | pEC50 [4]: 8.32
